Test results reported in patent publication US9163044B2, “Carbon monoxide releasing molecules and uses thereof” (Alfama, Inc., priority 2011, dated 2015).
Entries after “also recorded” stand apart in the source; their conditions may differ.

Assays:
[1] = CO release kinetics in 50 mM HEPES buffer (pH 7.4), GC-RCP; type: physicochemical; conditions: for CO equivalents released in 24 hours in the dark / CO equivalents released in 24 hours under light: 50 mM HEPES buffer
Procedure: The quantization of the released CO was performed according to Vreman et al. Anal. Biochem. (2005) 341: 280-289 using a Gas Chromatograph with a Reducing Compound Photometer detector (GC-RCP; Peak Laboratories, Mountain View, Calif.), which allows quantifying CO in gas mixtures at concentrations as low as 1-2 parts per billion (ppb).
General Method for the Determination of CO Release in HEPES Buffer
The CO release kinetics of all compounds was evaluated in 50 mM HEPES buffer (pH 7.4) in a sealed 8-mL vial. […] Since light activation can release CO from molybdenum carbonyl compounds, CO release was determined with solutions in closed, clear glass vials kept under light (on the laboratory bench under regular laboratory lighting) or in the dark (wrapped in aluminum foil and kept inside a cardboard box). Gas samples (from 10 μL up to 500 μL) of the vial headspace (7 ml volume) were removed with a gas-tight syringe at 15, 30, 60, 120, 240, 360 min, and 24 hours after start of the incubation. The gas samples were injected into sealed vials containing air (8 mL) for dilution. The entire gas volume of the vials (8 mL) was transferred with carrier gas to the GC-RCP and analyzed for CO. The GC-RCP had been calibrated with gas containing a known amount of CO. The calibration curve had been established starting with gas from a cylinder which contained synthetic air with 30 ppm CO (Linde, Cat. No. 14960013) and preparing dilutions in 8-mL vials as described above.
(§1) The CO equivalents released at each time point from each compound were determined by the following equation: (CO released (pmol)×number of CO ligands in the molecule)/([CO] in the compound (pmol)).

[2] = test system: APAP-induced acute liver failure (ALF) model; experiment: APAP-induced acute liver failure (ALF) model, sublethal (300 mg/kg APAP i.p.); type: in vivo, C57Bl/6 male mice; conditions: for therapeutic activity in acetaminophen induced ALF (in words): mouse, in vivo; for % ALT increase relative to increase with APAP alone Experiment 1 / % ALT increase relative to increase with APAP alone Experiment 2 / Measured ALT values (mean ± S.D.) Experiment 1 / Measured ALT values (mean ± S.D.) Experiment 2: alone or plus NAC (300 mg/kg), at 1 h and 3 h post APAP; for Measured ALT values (mean ± S.D.) Experiment 1 / Measured ALT values (mean ± S.D.) Experiment 2: serum 22 h
Procedure: Compound 3b was studied in a sublethal model for acetaminophen (APAP)-induced Liver Injury.
ALF was induced in C57Bl/6 male mice with a single dose of acetaminophen (300 mg/kg) by i.p. injection. […] Serum alanine aminotransferase (ALT) was measured 22 h after APAP injection (n=5 mice for each group). […] ALF was induced in C57Bl/6 male mice with a single dose of acetaminophen (300 mg/kg) by i.p. injection. […] Twenty-two hours after APAP injection serum ALT was measured (indicated in FIG. 11A), centrilobular sections of mouse livers were cut and stained with hematoxylin and eosin, and the percentage of liver necrosis was determined. The data indicates a dose-dependent reduction of ALT levels of 9% to 83% relative to APAP control, and a dose-dependent reduction of necrosis of 0% to 56% relative to APAP control.
ALF was induced in C57Bl/6 male mice with a single dose of acetaminophen (300 mg/kg) by i.p. injection. […] Alanine aminotransferase (ALT) was measured 22 h after APAP injection (n=4 or n=5 mice for each group).
ALF was induced in C57Bl/6 male mice with a single dose of acetaminophen (300 mg/kg) by i.p. injection. […] Twenty-two hours after APAP injection, serum ALT was measured (indicated in FIGS. 12A-12B), centrilobular sections of mouse livers were cut and stained with hematoxylin and eosin, and the percentage of liver necrosis was determined.
ALF was induced in C57Bl/6 male mice with a single dose of acetaminophen (300 mg/kg) by i.p. injection.
FIG. 14 depicts the effect of late treatment with Compound 3b on serum ALT in ALF model. ALF was induced in C57Bl/6 male mice with a single dose of acetaminophen (300 mg/kg) by i.p. injection. At sixteen hours after APAP injection, the animals were treated with different doses of Compound 3b (0.3, 3, 30 or 60 mg/kg). Alanine aminotransferase (ALT) was measured 22 h after APAP injection (n=4 or n=5 mice for each group).
ALF was induced in C57Bl/6 male mice with a single dose of acetaminophen (300 mg/kg) by i.p. injection. […] Experiments 1 and 2 represent two independent experiments. Alanine aminotransferase (ALT) was measured 22 h after APAP injection (n=4 or n=5 mice for each group). The ALT levels and the respective percentage of ALT increase, relative to the increase observed in mice injected with APAP alone, are presented in Table 7.
ALF was induced in C57Bl/6 male mice with a single dose of acetaminophen (300 mg/kg) by i.p. injection. […] Twenty-two hours after APAP injection, serum ALT was measured and centrilobular sections of mouse livers were cut and stained with hematoxylin and eosin.

[3] = CO release kinetics in the presence of rat liver microsomes, K-phosphate buffer (pH 7.4); type: in vitro ADME; conditions: for effect of liver microsomes on CO release / decay (in words): compared with incubation without microsomes; for CO eq. released in 1 h, Microsomes K-phosphate buffer (pH 7.4): with microsomes, 10 μM, 37° C., dark
Procedure: General Method for the CO Release in the Presence of Liver Microsomes
The CO release kinetics of Compounds 1b, 2b, 3b, 4b, and 5b were also evaluated in the presence of rat or human liver microsomes. In a 8-mL vial, the following reagents were combined:
200 μL of 0.5 M potassium phosphate buffer, pH 7.4
50 μL of NADPH regenerating system solution A (BD, Cat. No. 451220)
10 μL of NADPH regenerating system solution B (BD, Cat. No. 451200)
2 μL of 5 mM solution of the compound in DMSO (10 μM final concentration)
The vials were closed and after mixing, the samples were warmed to 37° C. for 5 minutes before an aliquot (25 μL, 0.5 mg protein content) of rat liver microsomes (BD, Cat. No. 452511) or human liver microsomes (BD, Cat. No. 452161) was added to each vial. In parallel analogous vials with all the reagents except the microsomes were prepared. Due to the light-sensitivity of the molybdenum compounds, the reactions were performed in the dark. The samples were incubated at 37° C. and gas samples of the headspace (from 100 μL to 500 μL) of the vials were removed with a gas-tight syringe after 5, 10, 15, 30, and 60 minutes (in some cases samples were also taken at 1, 2, 3 or 4 minutes) upon microsomes addition. The gas samples were then injected into empty sealed vials (8 mL volume) and the amount of CO present in the vials was measured using GC-RCP.
as §1, with “(pmol)). A 1 mL solution of a tri-carbonyl compound, at 50 μM concentration contains a total of 150,000 pmol of CO.” for “(pmol)).”

CC([N+]#[C][Mo-6]([C]#[O+])([C]#[O+])([C]#[O+])([C]#[N+]C(C)C(=O)O)[C]#[N+]C(C)C(=O)O)C(=O)O (stereo not drawn) [Compound 2b, tricarbonyl[tris(2-isocyanopropionic acid)]Mo(0)]
CO equivalents released in 24 hours in the dark [1]: 1.2 CO equivalents | CO equivalents released in 24 hours under light ([1]; under light): 1.5 CO equivalents | time to release 0.5 CO equivalents under light ([1]; 50 mM HEPES pH 7.4, 50 μM, under light): about 90 minutes | therapeutic activity in acetaminophen induced ALF (in words) [2]: still retains therapeutic activity although lower than that of Compound 3b | effect of liver microsomes on CO release / decay (in words) [3]: accelerated the decay | CO eq. released in 1 h, Microsomes K-phosphate buffer (pH 7.4) [3]: (0.9CO eq. in 1 h)

tricarbonyl[tris(isocyanoacetic acid)]Mo(0) [Compound 1b]
CO equivalents released in 24 hours in the dark [1]: 1.4 CO equivalents | CO equivalents released in 24 hours under light ([1]; under light): 1.6 CO equivalents | reduction of necrosis relative to APAP control (in words) ([2]; 60 mg/kg, 1 h after APAP): does not reduce necrosis | therapeutic activity in acetaminophen induced ALF (in words) [2]: lack of activity | effect of liver microsomes on CO release / decay (in words) [3]: increased rate of CO release | CO eq. released in 1 h, Microsomes K-phosphate buffer (pH 7.4) [3]: (1.1CO eq. in 1 h)

[C-]#[N+]C(C)(C)C(=O)O.[C-]#[N+]C(C)(C)C(=O)O.[C-]#[N+]C(C)(C)C(=O)O.[C-]#[O+].[C-]#[O+].[C-]#[O+].[Mo] [Compound 3b, tricarbonyl[tris(2-isocyano-2-methyl-propionic acid)]Mo(0)]
CO equivalents released in 24 hours in the dark [1]: 1.3 CO equivalents | CO equivalents released in 24 hours under light ([1]; under light): 1.8 CO equivalents | effect of a single dose administered 16 hours after APAP injury (in words) ([2]; 0.3, 3, 30 or 60 mg/kg at 16 h, ALT 22 h after APAP): dose-dependent therapeutic effect | therapeutic effect, 2 doses given at 1 h and 3 h after APAP (in words) ([2]; 2×60 and 2×120 mg/kg, NAC 2×300 mg/kg, evaluated 22 h post APAP): highly therapeutic; also recorded: as effective as NAC | % ALT increase relative to increase with APAP alone Experiment 1 ([2]; 3b 2 × 60 mg/kg): 57.2 ± 14.5% | % ALT increase relative to increase with APAP alone Experiment 2 ([2]; 3b 2 × 60 mg/kg): 45.0 ± 8.1% | Measured ALT values (mean ± S.D.) Experiment 1 ([2]; 3b 2 × 60 mg/kg): 5180 ± 1312 U/L | Measured ALT values (mean ± S.D.) Experiment 2 ([2]; 3b 2 × 60 mg/kg): 5500 ± 987 U/L | % ALT increase relative to increase with APAP alone Experiment 1 ([2]; 3b 2 × 120 mg/kg): 49.5 ± 7.0% | % ALT increase relative to increase with APAP alone Experiment 2 ([2]; 3b 2 × 120 mg/kg): 35.7 ± 7.6% | Measured ALT values (mean ± S.D.) Experiment 1 ([2]; 3b 2 × 120 mg/kg): 4480 ± 630 U/L | Measured ALT values (mean ± S.D.) Experiment 2 ([2]; 3b 2 × 120 mg/kg): 4360 ± 926 U/L | liver histology: necrosis (in words) ([2]; Compound 3b 2×100 or 2×300 mg/kg, NAC 2×300 mg/kg, at one and three hours after APAP, 22 h): very little if any necrosis | effect on serum ALT when given late after APAP injury (in words) ([2]; five hours and seven hours after APAP, NAC 150 mg/kg, Compound 3b 120 mg/kg): therapeutic | therapeutic activity in acetaminophen induced ALF (in words) [2]: strong therapeutic activity | effect of liver microsomes on CO release / decay (in words) [3]: increased rate of CO release | initial CO release rate, presence versus absence of microsomes ([3]; ratio with/without microsomes): approximately 4 times faster | CO eq. released in 1 h, Microsomes K-phosphate buffer (pH 7.4) [3]: (1.5CO eq. in 1 h)
